The source of these data is patent US20060240048A1 (priority 2002, published 2006).

The test concerns the target T1, human cannabinoid CB2 receptor (Homo sapiens, UniProt P34972).
T1 construct: expressed in transfected cells; host or cells: Saccharomyces cerevisiae strain MMY23
In words: Cannabinoid CB2 receptor agonist activity, yeast reporter assay (FDGlu fluorescence).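 As to Emax: 100% equals maximal response of reference agonist HU210.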 It counts as cell-based. Particulars: for Emax: read-out: efficacy value (Emax) at the cloned human cannabinoid CB2 receptor. (In general: A reporter such as luciferase makes a cellular process visible.)

T1 sequence (P34972 whole entry): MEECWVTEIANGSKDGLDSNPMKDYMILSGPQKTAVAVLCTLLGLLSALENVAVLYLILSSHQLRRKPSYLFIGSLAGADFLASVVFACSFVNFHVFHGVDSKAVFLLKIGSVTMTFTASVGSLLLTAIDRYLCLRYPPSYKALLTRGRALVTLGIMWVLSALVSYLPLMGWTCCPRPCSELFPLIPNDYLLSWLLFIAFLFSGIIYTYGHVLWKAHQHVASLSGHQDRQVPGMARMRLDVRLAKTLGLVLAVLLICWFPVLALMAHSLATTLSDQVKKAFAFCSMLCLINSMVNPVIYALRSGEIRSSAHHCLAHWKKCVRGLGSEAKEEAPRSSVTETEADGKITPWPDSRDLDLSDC

Regarding `O=C(NCC1CCCCC1)c1cnc(Nc2ccc(Cl)cc2Cl)cc1C(F)(F)F` [Example 138, N-Cyclohexylmethyl-6-(2,4-dichloro-phenylamino)-4-tri-fluoromethyl-nicotinamide], the concentration giving a half-maximal response (EC50) (as a rule, the concentration needed to bring the measured effect to its halfway point) is less than 300 nM and the Emax (in general, the greatest response seen or fitted, relative to the assay's reference) is greater than 50%. The corresponding values for `O=C(NCC1CCCC1)c1cnc(Nc2cccc(Cl)c2)cc1C(F)(F)F` [Example 114, N-Cyclopentylmethyl-6-(3-chlorophenylamino)-4-tri-fluoromethyl-nicotinamide] are less than 300 nM and greater than 50%. Taken in the same sequence, the figures for `Cc1cc(C#N)ccc1Nc1cc(C(C)C)c(C(=O)NCC2CCC2)cn1` [Example 261, 6-(4-Cyano-2-methyl-phenylamino)-N-cyclobutylmethyl-4-isopropyl-nicotinamide] were less than 300 nM and greater than 50%.

Consider `CC(C)c1cc(Nc2ccc(F)cc2Cl)ncc1C(=O)NCC1CCC1` [Example 253, 6-(2-Chloro-4-fluoro-phenylamino)-N-cyclobutylmethyl-4-isopropyl-nicotinamide], for which the EC50 is less than 300 nM and the Emax was greater than 50%.

Regarding `O=C(NCC1CCCC1)c1cnc(Nc2ccc(F)cc2Cl)cc1C(F)(F)F` [Example 164, N-Cyclopentylmethyl-6-(2-Chloro-4-fluoro-phenyl-amino)-4-trifluoromethyl-nicotinamide], the EC50 is less than 300 nM and the maximum response (Emax) is greater than 50%. The corresponding values for `CC(C)c1cc(Nc2cccc(Cl)c2Cl)ncc1C(=O)NCC1CCOCC1` [Example 16, 6-(2,3-Dichloro-phenylamino)-4-isopropyl-N-(tetrahydro-pyran-4-ylmethyl)-nicotinamide] are less than 300 nM and greater than 50%. In the case of `O=C(NCC1CCC1)c1cnc(Nc2ccc(Cl)c(Cl)c2)cc1C(F)(F)F` [Example 157, N-Cyclobutylmethyl-6-(3,4-dichloro-phenylamino)-4-tri-fluoromethyl-nicotinamide], the concentration for a half-maximal effect (EC50) is less than 300 nM and the Emax is greater than 50%. As for `COc1cccc(Nc2cc(C(C)C)c(C(=O)NCC3CCCCC3)cn2)c1` [Example 9, N-Cyclohexylmethyl-4-isopropyl-6-(3-methoxy-phenylamino)-nicotinamide], the concentration for a half-maximal effect (EC50) is less than 300 nM and the maximum response (Emax) is greater than 50%. Taken in the same sequence, the figures for `CC(C)c1cc(Nc2cccc(Cl)c2)ncc1C(=O)NC1CCCCC1` [Example 53, 6-(3-Chloro-Phenylamino)-N-cyclohexyl-4-isopropyl-nicotinamide] were less than 300 nM and greater than 50%. With `O=C(NC1CCC1)c1cnc(Nc2cccc(F)c2)cc1C(F)(F)F` [Example 127, N-Cyclobutyl-6-(3-fluoro-phenylamino)-4-trifluoro-methyl-nicotinamide], the EC50 was less than 300 nM and the Emax was greater than 50%.

Regarding `Cc1ccc(Br)cc1Nc1cc(C(C)C)c(C(=O)NCC2CCOCC2)cn1` [Example 234, 6-(5-Bromo-2-methyl-phenylamino)-4-isopropyl-N-(tetrahydro-pyran-4-ylmethyl)-nicotinamide], the EC50 was less than 300 nM and the Emax was greater than 50%. With `CC(C)c1cc(Nc2cccc(Br)c2)ncc1C(=O)NCC1CCCC1` [Example 26, 6-(3-Bromophenylamino)-N-cyclopentylmethyl-4-isopropyl-nicotinamide], the EC50 is less than 300 nM and the maximal effect (Emax) was greater than 50%. Taken in the same sequence, the figures for `O=C(NCC1CCCC1)c1cnc(Nc2cccc(Br)c2)cc1C(F)(F)F` [Example 122, N-Cyclopentylmethyl-6-(3-bromo-phenylamino)-4-tri-fluoromethyl-nicotinamide] were less than 300 nM and greater than 50%.

Take `O=C(NCC1CCCCCC1)c1cnc(Nc2cc(Cl)cc(Cl)c2)cc1C(F)(F)F` [Example 175, N-Cycloheptylmethyl-6-(3,5-dichloro-phenyiamino)-4-trifluoromethyl-nicotinamide]: the Emax was greater than 50%.

In the case of `O=C(NCC1CCS(=O)(=O)C1)c1cnc(Nc2cccc(F)c2)cc1C(F)(F)F` (stereo not drawn) [Example 133, N-(1,1-Dioxo-tetrahydro-thiophen-3-ylmethyl)-6-(3-fluoro-phenylamino)-4-trifluoromethyl-nicotinamide], the EC50 was less than 300 nM and the Emax was greater than 50%.

As to `Cc1cc(Cl)ccc1Nc1cc(C(C)C)c(C(=O)NCC2CCC2)cn1` [Example 258, 6-(4-Chloro-2-methyl-phenylamino)-N-cyclobutylmethyl-4-isopropyl-nicotinamide], the concentration giving a half-maximal response (EC50) was less than 300 nM and the Emax is greater than 50%. With `CC(C)c1nc(Nc2cccc(Cl)c2)ccc1C(=O)NCC1CCS(=O)(=O)C1` (stereo not drawn) [Example 209, 6-(3-Chloro-phenylamino)-N-(1,1-dioxo-tetrahydrothiophen-3-ylmethyl)-2-isopropyl-nicotinamide], the EC50 was less than 300 nM and the Emax is greater than 50%. As to `O=C(NC1CCC1)c1cnc(Nc2ccc(Cl)cc2Cl)cc1C(F)(F)F` [Example 140, N-Cyclobutyl-6-(2,4-dichloro-phenylamino)-4-trifluoro-methyl-nicotinamide], the half-maximal effective concentration (EC50) was less than 300 nM and the Emax was greater than 50%. As to `CC(C)c1cc(Nc2cccc(Br)c2)ncc1C(=O)NCC1CCC1` [Example 33, 6-(3-Bromo-phenylamino)-N-cyclobutylmethyl-4-isopropyl-nicotinamide], the 50% effective concentration (EC50) was less than 300 nM and the Emax was greater than 50%.

Regarding `CC(C)c1cc(Nc2cccc(Cl)c2)ncc1C(=O)NCC1CCS(=O)(=O)C1` (stereo not drawn) [Example 223, 6-(3-Chloro-phenylamino)-N-(1,1-dioxo-tetrahydro-1/^6-thiophen-3-ylmethyl)-4-isopropyl-nicotinamide], the EC50 was less than 300 nM and the Emax was greater than 50%.

For `CC(C)c1cc(Nc2cccc(C(F)(F)F)c2)ncc1C(=O)NCC1CCCC1` [Example 23, N-Cyclopentylmethyl-4-isopropyl-6-(3-trifluoromethyl-phenylamino)-nicotinamide], the half-maximal effective concentration (EC50) was less than 300 nM and the Emax was greater than 50%. Turning to `CC(C)c1cc(Nc2cc(C(F)(F)F)ccc2F)ncc1C(=O)NCC1CCOCC1` [Example 236, 6-(2-Fluoro-5-trifluoromethyl-phenylamino)-4-isopropyl-N-(tetrahydro-pyran-4-ylmethyl)-nicotinamide], the half-maximal effective concentration (EC50) was less than 300 nM and the Emax was greater than 50%. With `O=C(NCC1CCOCC1)c1cnc(Nc2cccc(Cl)c2)cc1C(F)(F)F` [Example 111, N-(Tetrahydropyran-4-yl-methyl)-6-(3-chlorophenyl-amino)-4-trifluoromethyl-nicotinamide], the maximum response (Emax) was greater than 50%. In the case of `Cc1c(Nc2cc(C(C)C)c(C(=O)NCC3CCOCC3)cn2)cccc1C(F)(F)F` [Example 84, 4-lsopropyl-6-(2-methyl-3-trifluoromethyl-phenylamino)-N-(tetrahydro-pyran-4-ylmethyl)-nicotinamide], the EC50 was less than 300 nM and the Emax was greater than 50%. Turning to `CC(C)c1cc(Nc2ccc(Cl)cc2Br)ncc1C(=O)NCC1CCCC1` [Example 89, 6-(2-Bromo-4-chloro-phenylamino)-N-cyclopentylmethyl-4-isopropyl-nicotinamide], the EC50 is less than 300 nM and the maximal response (Emax) is greater than 50%.
